In experiment [1] the target is Cathepsin D (Homo sapiens, UniProt P07339). The experiment in a line: In Vitro Enzymatic Cathepsin D (Cat D) FRET Assay. As for the experimental part:
Recombinant Cat D was expressed in CHO cells. The assay buffer for CathepsinD is 0.05 M citrate pH 3.5, 10% DMSO final, 5 mM CHAPS. […] The assays are effectively started by the addition of different FRET substrates (20 nM for Cat D) and the combination is incubated for one hour. The FRET assay is terminated with by addition of Tris buffer, which raises the pH to neutrality, and the fluorescence is determined. The FRET substrate is a peptide with commercially available fluorophore and quencher, on opposite sides of the BACE cleavage site. […] Proteolytic cleavage of the FRET substrate releases quenching of fluorescence (Cat D excitation 500 nm and emission 580 nm).

In experiment [2] the target is T1, Beta-secretase 2 (Homo sapiens, UniProt Q9Y5Z0).
T1 sequence (Q9Y5Z0 whole entry): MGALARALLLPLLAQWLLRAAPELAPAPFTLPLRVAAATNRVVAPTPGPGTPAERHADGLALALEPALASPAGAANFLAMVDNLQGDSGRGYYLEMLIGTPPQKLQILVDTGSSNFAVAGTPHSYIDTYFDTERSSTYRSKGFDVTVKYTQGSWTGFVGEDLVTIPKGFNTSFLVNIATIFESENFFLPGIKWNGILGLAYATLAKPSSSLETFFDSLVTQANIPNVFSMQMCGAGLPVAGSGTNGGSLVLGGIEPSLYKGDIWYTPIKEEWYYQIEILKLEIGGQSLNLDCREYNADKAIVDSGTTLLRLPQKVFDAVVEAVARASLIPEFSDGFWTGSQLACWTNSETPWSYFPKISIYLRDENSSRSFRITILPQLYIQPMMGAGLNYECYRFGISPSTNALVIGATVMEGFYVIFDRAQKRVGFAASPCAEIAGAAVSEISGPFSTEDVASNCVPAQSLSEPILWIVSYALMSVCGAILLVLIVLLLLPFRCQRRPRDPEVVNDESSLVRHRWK
The experiment in a line: In Vitro Enzymatic BACE1 and BACE2 FRET Assays. The protocol:
(§1) The cDNAs for both human recombinant BACE1 and BACE2 with C-terminal 6-His Tags were cloned into transient protein expression vectors, which were subsequently transfected into mammalian cell lines. These recombinant proteins were further purified using Ni-NTA affinity chromatography (Qiagen). The assay buffer used in these screens is 0.05 M acetate, pH 4.5, 8% DMSO final, 100 uM genapol (which is a nonionic detergent, below its Critical Micelle Concentration). […] This assay is effectively started by the addition of FRET substrate (50 nM) and the combination is incubated for one hour. The FRET assay is terminated by addition of Tris buffer, which raises the pH to neutrality, and the fluorescence is determined. The FRET substrate is a peptide with commercially available fluorophore and quencher, on opposite sides of the BACE cleavage site.

In experiment [3] the target is Beta-secretase 1 (Homo sapiens, UniProt P56817). Description: In Vitro Enzymatic BACE1 and BACE2 FRET Assays. The protocol: as §1
Beta-secretase 1, sequence (P56817 whole entry): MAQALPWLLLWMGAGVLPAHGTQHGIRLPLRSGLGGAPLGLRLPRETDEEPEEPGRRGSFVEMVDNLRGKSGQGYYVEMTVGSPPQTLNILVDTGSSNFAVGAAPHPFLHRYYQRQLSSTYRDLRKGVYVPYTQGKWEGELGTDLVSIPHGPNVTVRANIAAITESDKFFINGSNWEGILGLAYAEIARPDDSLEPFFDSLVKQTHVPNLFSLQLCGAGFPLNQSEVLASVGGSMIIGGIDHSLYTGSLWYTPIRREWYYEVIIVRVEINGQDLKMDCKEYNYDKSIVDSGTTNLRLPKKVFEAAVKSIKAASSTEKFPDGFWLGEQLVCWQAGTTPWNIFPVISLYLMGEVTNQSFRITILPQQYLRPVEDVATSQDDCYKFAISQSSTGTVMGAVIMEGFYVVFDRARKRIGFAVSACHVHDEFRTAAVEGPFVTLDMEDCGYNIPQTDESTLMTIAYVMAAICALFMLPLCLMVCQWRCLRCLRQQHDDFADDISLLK

Cathepsin D, sequence (P07339 65-162 limits assumed): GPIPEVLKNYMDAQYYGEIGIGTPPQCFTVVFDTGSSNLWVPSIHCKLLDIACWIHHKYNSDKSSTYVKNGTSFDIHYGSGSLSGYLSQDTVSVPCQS
Cathepsin D, sequence (P07339 169-412 limits assumed): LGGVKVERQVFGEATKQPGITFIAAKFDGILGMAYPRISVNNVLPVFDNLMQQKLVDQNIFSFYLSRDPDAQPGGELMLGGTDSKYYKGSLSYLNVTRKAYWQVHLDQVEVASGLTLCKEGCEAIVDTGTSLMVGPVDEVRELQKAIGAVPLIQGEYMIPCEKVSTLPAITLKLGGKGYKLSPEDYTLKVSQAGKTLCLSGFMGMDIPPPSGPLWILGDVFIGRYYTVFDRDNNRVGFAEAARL

As to `NC1=N[C@](CF)(c2cc(Nc3ncnc4cc(Cl)cnc34)ccc2F)[C@H]2C[C@@H]2S1` [US20160046618, Example 39], the IC50 (in general, the concentration at which inhibition is half-maximal) was found to be 1220 µM in experiment [1] and 0.0278 µM in experiment [2].
In the same order, the values of `Cc1cc(C#N)cnc1C(=O)Nc1cc(F)c(F)c([C@@]2(CF)N=C(N)S[C@@]3(C(F)F)C[C@@H]23)c1` [US20160046618, Example 94] are 559 µM and less than 0.00203 µM.
In the case of `C#C[C@H](C)Oc1cnc(C(=O)Nc2cc(F)c(F)c([C@@]3(C)N=C(N)S[C@@]4(CF)C[C@H]43)c2)c(C)n1` [US20160046618, Example 616], the IC50 in experiment [1] came out at 905 µM; in experiment [3] it was 0.00342 µM; in experiment [2] it was 0.124 µM.
As for `C#C[C@H](C)Oc1cnc(C(=O)Nc2cc(F)c(F)c([C@@]3(C)N=C(N)S[C@@]4(COC)C[C@H]43)c2)c(C)n1` [US20160046618, Example 622], the IC50 was determined as 946 µM in experiment [1], 0.00492 µM in experiment [3] and 0.225 µM in experiment [2].
In the same order, the values of `C#C[C@H](C)Oc1cnc(C(=O)Nc2ccc(F)c([C@@]3(C)N=C(N)S[C@@]4(C(F)F)C[C@@H]34)c2)c(C)c1` [US20160046618, Example 648] are 196 µM, 0.0433 µM and 0.522 µM.
In the same order, the values of `C#CCOc1cnc(C(=O)Nc2ccc(F)c([C@@]3(C)N=C(N)S[C@@]4(CF)C[C@H]43)c2)cn1` [US20160046618, Example 822] are 150 µM, 0.000264 µM and 0.0147 µM.
In the same order, the values of `C[C@]1(c2cc(NC(=O)c3ccc(Cl)cn3)cc(F)c2F)N=C(N)S[C@@]2(C(=O)O)C[C@H]21` [US20160046618, Example 899] are more than 400 µM, 0.00889 µM and 0.00258 µM.
With `NC1=N[C@](CF)(c2cc(Nc3nccc4nc(OCc5ncco5)cnc34)ccc2F)[C@@H]2C[C@]2(c2c[nH]nn2)S1` [US20160046618, Example 957], the IC50 came to 1260 µM in experiment [1], 0.000621 µM in experiment [3] and 0.00538 µM in experiment [2].
As to `C=CC(C)Oc1cnc(C(=O)Nc2ccc(F)c([C@@]3(C)N=C(N)S[C@@]4(COC)C[C@H]43)c2)cn1` (stereo not given in full) [US20160046618, Example 1063], the IC50 in experiment [1] was more than 400 µM; in experiment [3] it was 0.037 µM; in experiment [2] it was 0.555 µM.
